Reference: patent US20250145665A1, “MACROCYCLIC PEPTIDES USEFUL AS MODULATORS OF TNF ALPHA” (Bristol-Myers Squibb Company, priority 2023, published 2025)
Where two headings read alike, the source gives them in different places. Starred links: 1 amine or outer side, 2 acyl side, 3 side chain; linkers in the order of their positions; H or OH if unused. Positions of bridges follow the written chain, without caps; N, C: chain ends. Non-standard residues stand in square brackets, D forms with d. Residues, ends and D or L forms follow the SMILES beside them. ξ: configuration not given here. *: point of attachment. Bip(4'-NHCO-C6H4-3-CH2COOH) = N[C@@H](Cc1ccc(-c2ccc(NC(=O)c3cccc(CC(=O)O)c3)cc2)cc1)C(=O)O; Bip(4'-NH) = O=C([C@H](Cc1ccc(-c2ccc(N[*:3])cc2)cc1)N[*:1])[*:2]; dArg(ω-(3-HO-benzyl)) = N=C(NCCC[C@@H](N)C(=O)O)NCc1cccc(O)c1; dArg(ω-Bn(3-CH2OH)) = N=C(NCCC[C@@H](N)C(=O)O)NCc1cccc(CO)c1; Indazole3carbonyl(1-CH2COOH) = O=C(O)Cn1nc(C(=O)*)c2ccccc21; Bip(4'-COOH) = N[C@@H](Cc1ccc(-c2ccc(C(=O)O)cc2)cc1)C(=O)O; Bip(4'-NHAc) = CC(=O)Nc1ccc(-c2ccc(C[C@H](N)C(=O)O)cc2)cc1; Trp(1-CH2COOH) = N[C@@H](Cc1cn(CC(=O)O)c2ccccc12)C(=O)O; Ala(imidazol-2-yl) = N[C@@H](Cc1ncc[nH]1)C(=O)O; Ala(morpholin-4-yl) = N[C@@H](CN1CCOCC1)C(=O)O; Phe(3-CONH2) = NC(=O)c1cccc(C[C@H](N)C(=O)O)c1; Bip = N[C@@H](Cc1ccc(-c2ccccc2)cc1)C(=O)O; X67 = O=C(O)c1ccc(-c2cccc(C(=O)*)c2)cc1; X82 = C[C@@]1(C(=O)[*:2])CCN1[*:1]; 2Pal = N[C@@H](Cc1ccccn1)C(=O)O; 3Pal = N[C@@H](Cc1cccnc1)C(=O)O; Tic = O=C(O)[C@@H]1Cc2ccccc2CN1; Cha = N[C@@H](CC1CCCCC1)C(=O)O; X20 = O=C(c1csc(-c2ccncc2)n1)*; Tle = CC(C)(C)[C@H](N)C(=O)O; ξIle = CC[C@H](C)C(N)C(=O)O; ξP = O=C(O)C1CCCN1; Sar = CNCC(=O)O

Molecular target: TNFα (Homo sapiens, UniProt P01375)
Test: TNF-Induced HEK-Blue Assay
Assay type: cell-based
[1] = HEK-Blue-CD40L cells, NF-kB-driven secreted alkaline phosphatase reporter, TNFα 0.5 ng/ml, 18 h, read-out: TNF induced HEK-Blue assay IC50 value

Sequence of TNFα (P01375 77-233 limits assumed): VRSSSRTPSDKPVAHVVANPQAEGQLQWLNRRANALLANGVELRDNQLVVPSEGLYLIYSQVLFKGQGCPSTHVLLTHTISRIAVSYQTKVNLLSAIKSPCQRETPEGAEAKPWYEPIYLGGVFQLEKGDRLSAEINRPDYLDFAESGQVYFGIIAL

Row | IC50 [1] [nM] | Compound | IC50 [nM]
1 | 50 to 200 | CC(C)C[C@@H]1NC(=O)[C@H](Cc2ccc(O)cc2)NC(=O)[C@H](C(C)C)NC(=O)[C@]2(C)CCN2C(=O)[C@H](C(C)C)NC(=O)[C@H](CCCNC(=N)N)NC(=O)[C@H](CC(=O)O)NC(=O)[C@H](Cc2ccc(O)cc2)NC(=O)CN(C)C(=O)[C@H](Cc2ccc(-c3ccccc3)cc2)NC(=O)[C@H](Cc2ccc(-c3ccccc3)cc2)NC(=O)[C@H](CN2CCOCC2)NC(=O)CSC[C@@H](C(=O)NCC(N)=O)NC1=O [Example 93] ({CH2CO}-[Ala(morpholin-4-yl)][Bip][Bip][Sar]YDRV[X82]VYLCG-NH2; thioether N-13) | 
2 | < 50 | CC(C)C[C@@H]1NC(=O)[C@H](CCCNC(=N)N)NC(=O)[C@H](C(C)C)NC(=O)[C@@H]2CCCN2C(=O)[C@H](C(C)C)NC(=O)[C@@H](CCCNC(=N)NCc2cccc(O)c2)NC(=O)[C@H](CC(=O)O)NC(=O)[C@@H]2CCCN2C(=O)CN(C)C(=O)[C@H](Cc2ccc(-c3ccc(NC(=O)c4cccc(CC(=O)O)c4)cc3)cc2)NC(=O)[C@H](Cc2ccc(-c3ccccc3)cc2)NC(=O)[C@H](CN2CCOCC2)NC(=O)CSC[C@@H](C(=O)NCC(N)=O)NC1=O [Example 566] ({CH2CO}-[Ala(morpholin-4-yl)][Bip][Bip(4'-NHCO-C6H4-3-CH2COOH)][Sar]PD[dArg(ω-(3-HO-benzyl))]VPVRLCG-NH2; thioether N-13) | 
3 | 200 to 2000 | CC(C)C[C@@H]1NC(=O)[C@H](Cc2ccc(O)cc2)NC(=O)[C@H](C(C)C)NC(=O)[C@@H]2CCCN2C(=O)[C@H](Cc2cccnc2)NC(=O)[C@H](CCCNC(=N)N)NC(=O)[C@H](CC(=O)O)NC(=O)[C@H](Cc2ccc(O)cc2)NC(=O)CN(C)C(=O)[C@H](Cc2ccc(-c3ccccc3)cc2)NC(=O)[C@H](Cc2ccc(-c3ccccc3)cc2)NC(=O)[C@H](CN2CCOCC2)NC(=O)CSC[C@@H](C(=O)NCC(N)=O)NC1=O [Example 115] ({CH2CO}-[Ala(morpholin-4-yl)][Bip][Bip][Sar]YDR[3Pal]PVYLCG-NH2; thioether N-13) | 
4 | 50 to 200 | CC[C@H](C)[C@@H]1NC(=O)[C@@H](CCCNC(=N)N)NC(=O)[C@H](CC(=O)O)NC(=O)[C@H](Cc2ccccn2)NC(=O)CN(C)C(=O)[C@H](Cc2ccc(-c3ccc(NC(C)=O)cc3)cc2)NC(=O)[C@H](Cc2ccc(-c3ccccc3)cc2)NC(=O)[C@H](C(C)(C)C)NC(=O)CSC[C@@H](C(=O)NCC(N)=O)NC(=O)[C@H](CC(C)C)NC(=O)[C@H](Cc2cccc(C(N)=O)c2)NC(=O)[C@H](C(C)C)NC(=O)[C@@H]2CCCN2C1=O [Example 262] ({CH2CO}-[Tle][Bip][Bip(4'-NHAc)][Sar][2Pal]D[dR]IPV[Phe(3-CONH2)]LCG-NH2; thioether N-13) | 
5 | 50 to 200 | CC[C@H](C)[C@@H]1NC(=O)[C@@H](CCCNC(=N)N)NC(=O)[C@H](CC(=O)O)NC(=O)[C@H](Cc2cnc[nH]2)NC(=O)CN(C)C(=O)[C@H](Cc2ccc(-c3ccc(NC(=O)c4csc(-c5ccncc5)n4)cc3)cc2)NC(=O)[C@H](Cc2ccc(-c3ccc(C(=O)O)cc3)cc2)NC(=O)[C@H](CC2CCCCC2)NC(=O)CSC[C@@H](C(=O)NCC(N)=O)NC(=O)[C@H](CC(C)C)NC(=O)[C@H](Cc2ncc[nH]2)NC(=O)[C@H](C(C)C)NC(=O)[C@@H]2Cc3ccccc3CN2C1=O [Example 411] ({CH2CO}-[Cha][Bip(4'-COOH)][Bip(4'-NH)](X20)[Sar]HD[dR]I[Tic]V[Ala(imidazol-2-yl)]LCG-NH2; thioether N-13) | 
6 | 200 to 2000 | CC[C@H](C)C1NC(=O)CSC[C@@H](C(=O)NCC(N)=O)NC(=O)[C@H](CC(C)C)NC(=O)[C@H](CCCNC(=N)N)NC(=O)[C@H](C(C)C)NC(=O)[C@@H]2CCCN2C(=O)[C@H](C(C)C)NC(=O)[C@H](CCCNC(=N)N)NC(=O)[C@H](CC(=O)O)NC(=O)[C@@H]2CCCN2C(=O)CN(C)C(=O)[C@H](Cc2ccc(-c3ccccc3)cc2)NC(=O)[C@H](Cc2ccc(-c3ccccc3)cc2)NC1=O (some centres unmarked) [Example 7] ({CH2CO}-[ξIle][Bip][Bip][Sar]PDRVPVRLCG-NH2; thioether N-13) | 
7 | 50 to 200 | CC(=O)Nc1ccc(-c2ccc(C[C@@H]3NC(=O)[C@H](Cc4ccc(-c5ccccc5)cc4)NC(=O)[C@H](CN4CCOCC4)NC(=O)CSC[C@@H](C(=O)NCC(N)=O)NC(=O)[C@H](CC(C)C)NC(=O)[C@H](CCCNC(=N)N)NC(=O)[C@H](C(C)C)NC(=O)[C@@H]4CCCN4C(=O)[C@H](Cc4ccc(O)cc4)NC(=O)[C@H](CCCNC(=N)N)NC(=O)[C@H](CC(=O)O)NC(=O)[C@@H]4CCCN4C(=O)CN(C)C3=O)cc2)cc1 [Example 127] ({CH2CO}-[Ala(morpholin-4-yl)][Bip][Bip(4'-NHAc)][Sar]PDRYPVRLCG-NH2; thioether N-13) | 
8 |  | CC[C@H](C)[C@@H]1NC(=O)[C@@H](CCCNC(=N)NCc2cccc(CO)c2)NC(=O)[C@H](CC(=O)O)NC(=O)[C@H](Cc2cnc[nH]2)NC(=O)CN(C)C(=O)[C@H](Cc2ccc(-c3ccc(NC(=O)c4nn(CC(=O)O)c5ccccc45)cc3)cc2)NC(=O)[C@H](Cc2ccc(-c3ccccc3)cc2)NC(=O)[C@H](CC2CCCCC2)NC(=O)CSC[C@@H](C(=O)NCC(N)=O)NC(=O)[C@H](CC(C)C)NC(=O)[C@H](Cc2cnc[nH]2)NC(=O)[C@H](C(C)C)NC(=O)[C@@H]2CCCN2C1=O [Example 477] ({CH2CO}-[Cha][Bip][Bip(4'-NH)](Indazole3carbonyl(1-CH2COOH))[Sar]HD[dArg(ω-Bn(3-CH2OH))]IPVHLCG-NH2; thioether N-13) | < 50
9 | 50 to 200 | CC[C@H](C)[C@@H]1NC(=O)[C@@H](CCCNC(=N)N)NC(=O)[C@H](CC(=O)O)NC(=O)[C@H](Cc2cnc[nH]2)NC(=O)CN(C)C(=O)[C@H](Cc2ccc(-c3ccc(NC(=O)[C@@H](N)Cc4cn(CC(=O)O)c5ccccc45)cc3)cc2)NC(=O)[C@H](Cc2ccc(-c3ccccc3)cc2)NC(=O)[C@H](CC2CCCCC2)NC(=O)CSC[C@@H](C(=O)NCC(N)=O)NC(=O)[C@H](CC(C)C)NC(=O)[C@H](Cc2ncc[nH]2)NC(=O)[C@H](C(C)C)NC(=O)C2CCCN2C1=O (some centres unmarked) [Example 420] ({CH2CO}-[Cha][Bip][Bip(4'-NH)](Trp(1-CH2COOH))[Sar]HD[dR]I[ξP]V[Ala(imidazol-2-yl)]LCG-NH2; thioether N-13) | 
10 | 50 to 200 | CC(C)C[C@@H]1NC(=O)[C@H](Cc2ccc(O)cc2)NC(=O)[C@H](C(C)C)NC(=O)[C@@H]2Cc3ccccc3CN2C(=O)[C@H](C(C)C)NC(=O)[C@@H](CCCNC(=N)N)NC(=O)[C@H](CC(=O)O)NC(=O)[C@@H]2CCCN2C(=O)CN(C)C(=O)[C@H](Cc2ccc(-c3ccc(NC(=O)c4cccc(-c5ccc(C(=O)O)cc5)c4)cc3)cc2)NC(=O)[C@H](Cc2ccc(-c3ccc(C(=O)O)cc3)cc2)NC(=O)[C@H](CC2CCCCC2)NC(=O)CSC[C@@H](C(=O)NCC(N)=O)NC1=O [Example 381] ({CH2CO}-[Cha][Bip(4'-COOH)][Bip(4'-NH)](X67)[Sar]PD[dR]V[Tic]VYLCG-NH2; thioether N-13) | 
11 |  | CC[C@H](C)[C@@H]1NC(=O)[C@@H](CCCNC(=N)NCc2cccc(O)c2)NC(=O)[C@H](CC(=O)O)NC(=O)[C@H](Cc2cnc[nH]2)NC(=O)CN(C)C(=O)[C@H](Cc2ccc(-c3ccc(NC(=O)c4nn(CC(=O)O)c5ccccc45)cc3)cc2)NC(=O)[C@H](Cc2ccc(-c3ccc(C(=O)O)cc3)cc2)NC(=O)[C@H](CC2CCCCC2)NC(=O)CSC[C@@H](C(=O)NCC(N)=O)NC(=O)[C@H](CC(C)C)NC(=O)[C@H](Cc2ncc[nH]2)NC(=O)[C@H](C(C)C)NC(=O)[C@@H]2Cc3ccccc3CN2C1=O [Example 561] ({CH2CO}-[Cha][Bip(4'-COOH)][Bip(4'-NH)](Indazole3carbonyl(1-CH2COOH))[Sar]HD[dArg(ω-(3-HO-benzyl))]I[Tic]V[Ala(imidazol-2-yl)]LCG-NH2; thioether N-13) | < 50
